From US6812377B2, “Genetic engineering of syringyl-enriched lignin in plants” (Board of Control of Michigan Technological University, priority 2000, dated 2004)

How the values were obtained:
Assay type in all cases: biochemical
[1] = biological target: T1, recombinant PtCAD protein (Populus tremuloides, UniProt Q9M632); experiment: Kinetic properties of the recombinant PtCAD protein (HPLC-UV/MS); details: substrate of PtCAD; relative, coniferaldehyde = 100
Description: (§1) To characterize the enzyme pH optima, the substrate and recombinant PtCAD or PtSAD protein concentrations described above were used in sodium phosphate buffers, pH 5 to 8.5. […] For inhibition kinetics, the PtCAD-mediated reduction of sinapaldehyde (1 to 200 μM) was assayed in the presence of 1 to 5 μM coniferaldehyde, and the PtSAD-catalyzed reduction of coniferaldehyde (1 to 200 μM) was assayed in the presence of 1 to 5 μM sinapaldehyde. All reactions were terminated by the addition of 10 μL of 6 N HCI (to bring the pH to 2) and 500 ng of internal standard o-coumaric acid and analyzed by HPLC-UV/MS. An aliquot of 100 μL of reaction mixture was injected directly onto a Supelcosil LC-ABZ column (15 cm×4.6 mm×5 μm; Supelco, Bellefonte, Pa.) with automatic sample injection and separated isocratically with a Hewlett-Packard (HP) 1100 liquid chromatography system at 40° C. and a flow rate of 0.25 mL/min. […] The reaction products were identified and confirmed by comparing the ion fragmentation patterns of the product and the authentic standard in MS scanning mode at 70 V. The product quantity and Km, Vmax, kcat, and apparent inhibition constant (Ki) values (means±SE) were determined as described (Osakabe et al., 1999; Li et al., 2000). The results of the inhibition kinetics for both the CAD enzyme (i.e. Table 2) and the SAD enzyme (i.e., Table 3) using a variety of substrates are illustrated below.

[2] = biological target: T1, recombinant PtCAD protein; experiment: PtCAD enzyme activity with a mixture of coniferaldehyde and sinapaldehyde (HPLC-MS)
From the text: A guaiacyl pathway gene encoding coniferyl alcohol dehydrogenase (CAD, FIG. 1) from Populus tremuloides (GenBank #AF217957) was first cloned. This cDNA was designated as PtCAD (GenBank #AF217957). E. coli-expressed recombinant PtCAD protein was characterized for its catalytic activity with coniferaldehyde and sinapaldehyde. Because monolignol biosynthetic pathway intermediates are present together in lignifying tissues (Osakabe et al., 1999; Li et al. 2000), the PtCAD enzyme activity with a mixture of coniferaldehyde and sinapaldehyde was assayed. As shown in FIG. 5 (a) and (c), the reaction mixture was separated by HPLC after the enzyme reaction. […]
An aliquot of 100 μL of reaction mixture was injected directly onto a Supelcosil LC-ABZ column (15 cm×4.6 mm×5 μm; Supelco, Bellefonte, Pa.) with automatic sample injection and separated isocratically with a Hewlett-Packard (HP) 1100 liquid chromatography system at 40° C. and a flow rate of 0.25 mL/min. […] The reaction products were identified and confirmed by comparing the ion fragmentation patterns of the product and the authentic standard in MS scanning mode at 70 V. The product quantity and Km, Vmax, kcat, and apparent inhibition constant (Ki) values (means±SE) were determined as described (Osakabe et al., 1999; Li et al., 2000). […]

[3] = biological target: recombinant PtSAD protein (Populus tremuloides, UniProt Q94G59); experiment: Kinetic properties of the recombinant PtSAD protein (HPLC-UV/MS); details: substrate of PtSAD; relative, sinapaldehyde = 100
Sequence of recombinant PtSAD protein (Q94G59 entry or part of it): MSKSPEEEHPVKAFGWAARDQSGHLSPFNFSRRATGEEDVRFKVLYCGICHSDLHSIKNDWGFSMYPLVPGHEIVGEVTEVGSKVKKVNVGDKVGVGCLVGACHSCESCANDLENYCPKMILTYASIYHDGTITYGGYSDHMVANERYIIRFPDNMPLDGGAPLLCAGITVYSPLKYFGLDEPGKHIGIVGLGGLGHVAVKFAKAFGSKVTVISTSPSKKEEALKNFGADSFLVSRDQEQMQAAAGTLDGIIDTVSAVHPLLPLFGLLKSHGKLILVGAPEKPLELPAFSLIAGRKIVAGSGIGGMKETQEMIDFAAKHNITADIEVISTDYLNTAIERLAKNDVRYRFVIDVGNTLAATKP
Description: as §1

T1 sequence (Q9M632 entry or part of it): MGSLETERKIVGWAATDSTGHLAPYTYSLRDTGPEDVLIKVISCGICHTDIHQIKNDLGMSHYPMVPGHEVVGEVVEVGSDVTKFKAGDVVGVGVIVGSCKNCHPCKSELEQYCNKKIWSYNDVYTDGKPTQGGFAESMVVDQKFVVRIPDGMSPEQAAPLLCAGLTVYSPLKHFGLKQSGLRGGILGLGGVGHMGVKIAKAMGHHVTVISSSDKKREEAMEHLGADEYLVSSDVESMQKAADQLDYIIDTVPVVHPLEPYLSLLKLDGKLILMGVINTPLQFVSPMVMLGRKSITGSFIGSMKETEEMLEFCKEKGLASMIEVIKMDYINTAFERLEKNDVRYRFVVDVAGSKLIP

For `COc1cc(/C=C/C=O)ccc1O` [Coniferaldehyde], the Vmax/Km [1] was 100%, the “reaction of PtCAD with the substrate in a mixture” value [2] was “Only coniferyl alcohol was formed” and the Vmax/Km [3] was 26.6%.
